Data taken from US20070292912A1, “Diffusion-controlling sensor layer” (priority 1999, published 2007).

Experiments:
[1] = tested on: Escherichia coli strain SM101 (pEBZ181) recA-lux SOS reporter gene cells; test: Activity measurement with the diffusion-controlling sensor layer (SOS reporter gene cells in agarose on TLC plate); assay type: cell-based; details: for Rel. bioluminescence: sensor layer 2 mm, 28° C., 60 min
From the text: (§1) The reporter gene cell consists of the Escherichia coli strain SM101 which harbours the recombinant plasmid pEBZ181. This plasmid encodes a fusion between the recA promoter from E. coli and the structural genes of the bacterial luminescence of Vibrio fischeri (lux genes C, D, A, B, E and G). To construct the plasmid, the recA promoter-harbouring Bam H I fragment from the plasmid pUA80 [Barbe J, Fernandez de Henestrosa A R, Calero S, and Gilbert I (1991) Chromogenic Method for rapid isolation of recA-like mutants of Gram-negative bacteria. J. Bacteriol. 173: 404-406] was cloned into a derivative of the vector pEBZ112 [Peitzsch N, Eberz G, and Nies D (1998) Alcaligenes eutrophus as a bacterial chromate sensor. Appl. Environm. Microbiol. 64: 453-458] which harbours, inserted into the Nco I site of the luxG gene, a lacZ cassette [Becker A (1993) Analyse der Succinoglycan-Biosyntheseregion von Rhizobium meliloti 2011: Untersuchungen zur Identifizierung des bakteriellen Infektionssignals in der Symbiose mit Luzeme, doctoral thesis, Bielefeld University, Germany]. Plasmid pEBZ181 was transformed by standard methods [Sambrook J, Fritsch E F, and Maniatis T (1989) Molecular cloning: A laboratory manual (2nd edn), Cold Spring Harbor Laboratory Press] into the Escherichia coli strain SMIOI (obtained from E. coli Genetic Stock Center, Yale University, New Haven, USA) and employed for bioimaging experiments.
Treatment of bacteria with antibacterial agents such as 4-quinolonecarboxylic acids leads to induction of the so-called SOS repair mechanism [Walker C G (1984) Mutagenesis and inducible responses to deoxyribonucleic acid damage in Escherichia coli. Microbiol. Rev. 48: 60-93; Phillips I, Culabras E, Moreno F, and Baquero F (1987) Induction of the SOS response by new 4-quinolones. J. Antimicrob. Chemother. 20: 631-638; Piddock L J V, and Wise R (1987) Induction of the SOS response in Escherichia coli by 4-quinone antimicrobial agents. FEMS Microbiol. Lett. 41: 289-294]. The RecA protein is a main regulator of this repair mechanism, and SOS induction leads to enhanced expression of the recA gene. Measurement of the synthesis of the RecA protein [Little J W and Mount D W (1982) The SOS regulatory system of Escherichia coli. Cell 29: 11-22; Witkin E M (1976) Ultraviolet mutagenesis and inducible DNA repair in Escherichia coli. Bacteriol. Rev. 40: 864-907] or of recA-reporter gene fusions [Nunoshiba T and Nishioka H (1991) Rec-lac test for detecting SOS-inducing activity of environmental genotoxic substances. […]
In both assay formats ciprofloxacin was used for effect-specific induction of the SOS response. The bioluminescence stimulated in the reporter gene system used in this case provided the read-out signal which was recorded by video imaging. […]

[2] = tested on: Escherichia coli strain SM101 (pEBZ181) recA-lux SOS reporter gene cells; test: Microtitre plate assay with SOS reporter gene system (recA-lux bioluminescence stimulated by ciprofloxacin); assay type: cell-based; details: for Rel. bioluminescence: microtitre plate, 28° C., 60 min, relative to CTAB-free reference
From the text: as §1
Treatment of bacteria with antibacterial agents such as 4-quinolonecarboxylic acids leads to induction of the so-called SOS repair mechanism [Walker C G (1984) Mutagenesis and inducible responses to deoxyribonucleic acid damage in Escherichia coli. Microbiol. Rev. 48: 60-93; Phillips I, Culabras E, Moreno F, and Baquero F (1987) Induction of the SOS response by new 4-quinolones. J. Antimicrob. Chemother. 20: 631-638; Piddock L J V, and Wise R (1987) Induction of the SOS response in Escherichia coli by 4-quinone antimicrobial agents. FEMS Microbiol. Lett. 41: 289-294]. The RecA protein is a main regulator of this repair mechanism, and SOS induction leads to enhanced expression of the recA gene. Measurement of the synthesis of the RecA protein [Little J W and Mount D W (1982) The SOS regulatory system of Escherichia coli. Cell 29: 11-22; Witkin E M (1976) Ultraviolet mutagenesis and inducible DNA repair in Escherichia coli. Bacteriol. Rev. 40: 864-907] or of recA-reporter gene fusions [Nunoshiba T and Nishioka H (1991) Rec-lac test for detecting SOS-inducing activity of environmental genotoxic substances. Mutation Res. 254:71-77] is one possible way of measuring SOS induction and consequently the effect of 4-quinolonecarboxylic acids. Since the strain E. coli SM101 (pEBZ181) harbours a plasmid with a recA-lux reporter gene fusion, it is suitable for detecting 4-quinolonecarboxylic acids or other SOS-inducing compounds. The presence of such compounds leads to enhanced expression of the luciferase gene and thus to a stimulation of bioluminescence.
In both assay formats ciprofloxacin was used for effect-specific induction of the SOS response. The bioluminescence stimulated in the reporter gene system used in this case provided the read-out signal which was recorded by video imaging. In order to test the tolerance of the two bioassay formats to interfering substances, assays were carried out in the presence of cytotoxic cetyltrimethylammonium bromide (CTAB).
Five assay solutions were made up in a 96-well microtitre plate (Dynatech Microlite). A volume of 200 μl contained in each case:
16 μl of reporter gene cell suspension (OD: 1.2 at 660 nm) in 2% LB medium
90 μl of solution of substances 1.-5. in water
1. 25 ng of ciprofloxacin hydrochloride monohydrate
2. 25 ng of ciprofloxacin hydrochloride monohydrate+50 ng of CTAB
3. 25 ng of ciprofloxacin hydrochloride monohydrate+100 ng of CTAB
4. 25 ng of ciprofloxacin hydrochloride monohydrate+200 ng of CTAB
5. 25 ng of ciprofloxacin hydrochloride monohydrate+500 ng of CTAB […]

For CCCCCCCCCCCCCCCC[N+](C)(C)C.[Br-] [CTAB, cetyltrimethylammonium bromide], the Rel. bioluminescence ([1]; CTAB 250 ng/200 μl (calculated analogous concentration) with 10 ng ciprofloxacin hydrochloride monohydrate) was 1.002, the Rel. bioluminescence ([1]; CTAB 500 ng/200 μl (calculated analogous concentration) with 10 ng ciprofloxacin hydrochloride monohydrate) was 1.023 and the “bioactivity measurement on addition of CTAB” value ([1]; sensor layer format, ciprofloxacin-stimulated bioluminescence) was “not impaired”. The “relative bioluminescence as a measure of the selective stimulation by ciprofloxacin” value ([1]; sensor layer format, up to CTAB concentrations of 500 ng/200 μl) was “remained constant”, the Rel. bioluminescence ([2]; CTAB 50 ng/200 μl with 25 ng ciprofloxacin hydrochloride monohydrate) was 0.88 and the Rel. bioluminescence ([2]; CTAB 100 ng/200 μl with 25 ng ciprofloxacin hydrochloride monohydrate) was 0.87. For the same compound, the Rel. bioluminescence ([2]; CTAB 200 ng/200 μl with 25 ng ciprofloxacin hydrochloride monohydrate) was 0.78, the Rel. bioluminescence ([2]; CTAB 500 ng/200 μl with 25 ng ciprofloxacin hydrochloride monohydrate) was 0.44 and the reduction in bioluminescence ([2]; microtitre plate format, CTAB concentrations up to 500 ng/200 μl, ciprofloxacin-stimulated) was “more than 50%”. For the same compound, the “fall in the bioluminescence (of the initial value)” value ([2]; microtitre plate format, addition of CTAB, ciprofloxacin-stimulated) was “about 40%”.
